In brackets after ≈: the same amount, converted by molar mass. Some results are limits rather than exact numbers.

For one assay, the system named is Klebsiella pneumoniae. The assay can be described thus: Antibacterial activity against Klebsiella pneumoniae Greece producing KPC-2 beta-lactamase by E test method. The assay is classed as functional.
The subject of assay [1] is Escherichia coli. The assay can be described thus: Antibacterial activity against Escherichia coli J53 expressing Klebsiella pneumoniae Greece blaKPC-2 gene by E test method. The assay is classed as functional.
The subject of assay [2] is Escherichia coli. Kind of assay: Antibacterial activity against Escherichia coli J53 by E test method. Format: functional.
For assay [3], the target named is T1, Class A carbapenemase (Klebsiella pneumoniae) (UniProt A9LM97).
T1 sequence (whole entry): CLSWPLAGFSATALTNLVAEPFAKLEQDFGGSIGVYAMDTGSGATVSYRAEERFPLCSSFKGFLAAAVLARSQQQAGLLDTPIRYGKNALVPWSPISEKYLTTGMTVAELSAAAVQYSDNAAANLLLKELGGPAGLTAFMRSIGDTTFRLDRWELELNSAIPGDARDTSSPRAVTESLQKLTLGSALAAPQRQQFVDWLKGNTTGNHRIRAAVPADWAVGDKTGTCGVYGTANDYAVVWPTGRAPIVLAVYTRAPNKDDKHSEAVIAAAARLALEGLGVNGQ
The assay can be described thus: Activity at Klebsiella pneumoniae Greece Carbapenem-Hydrolyzing-Lactamase KPC-2 assessed per mg of total protein by spectrophotometrically.

One may read the MIC as the lowest concentration that inhibits growth of the organism. Read a low MIC as greater potency. As for GENTAMICIN, the figures for the MIC against Klebsiella pneumoniae, against Escherichia coli [1] and against Escherichia coli [2] were 1.5 µg/mL, 0.064 µg/mL and 0.064 µg/mL, respectively.
On to `CN(C)c1cc(NC(=O)CNC(C)(C)C)c(O)c2c1C[C@H]1C[C@H]3[C@H](N(C)C)C(O)=C(C(N)=O)C(=O)[C@@]3(O)C(O)=C1C2=O` [TIGECYCLINE], for which the MIC in the assay on Klebsiella pneumoniae was determined as 3 µg/mL (≈ 5.12 µM); against Escherichia coli [1], 0.5 µg/mL (≈ 0.854 µM); in the assay on Escherichia coli [2], 0.5 µg/mL (≈ 0.854 µM).
With `CO/N=C(\C(=O)N[C@@H]1C(=O)N2C(C(=O)O)=C(COC(C)=O)CS[C@H]12)c1csc(N)n1` [CEFOTAXIME], the MIC against Klebsiella pneumoniae is above 32 µg/mL; in the assay on Escherichia coli [1], 4 µg/mL (≈ 8.78 µM); with Escherichia coli [2], 0.06 µg/mL (≈ 0.132 µM).
Turning to `CO[C@@]1(NC(=O)Cc2cccs2)C(=O)N2C(C(=O)O)=C(COC(N)=O)CS[C@@H]21` [CEFOXITIN], the results for the MIC with Klebsiella pneumoniae, against Escherichia coli [1] and against Escherichia coli [2] were 64 µg/mL (≈ 150 µM), 4 µg/mL (≈ 9.36 µM) and 2 µg/mL (≈ 4.68 µM), respectively.
The matching figures for `CC1(C)S[C@@H]2[C@H](NC(=O)[C@H](N)c3ccc(O)cc3)C(=O)N2[C@H]1C(=O)O` [AMOXICILLIN]: above 256 µg/mL, above 256 µg/mL and 4 µg/mL (≈ 10.9 µM).
On to `CC1(C)S[C@@H]2[C@H](NC(=O)[C@H](C(=O)O)c3ccsc3)C(=O)N2[C@H]1C(=O)O` [TICARCILLIN], for which the MIC is above 256 µg/mL in the assay on Klebsiella pneumoniae, above 256 µg/mL against Escherichia coli [1] and 2 µg/mL (≈ 5.2 µM) in the assay with Escherichia coli [2].
For the compound `CO/N=C(\C(=O)N[C@@H]1C(=O)N2C(C(=O)[O-])=C(C[N+]3(C)CCCC3)CS[C@H]12)c1csc(N)n1` [CEFEPIME], the MIC is above 256 µg/mL with Klebsiella pneumoniae, 1.5 µg/mL (≈ 3.12 µM) against Escherichia coli [1] and 0.03 µg/mL (≈ 0.0624 µM) against Escherichia coli [2].
Turning to `C[C@@H](O)[C@H]1C(=O)N2C(C(=O)O)=C(S[C@@H]3CN[C@H](C(=O)N(C)C)C3)[C@H](C)[C@H]12` [MEROPENEM], the MIC is 6 µg/mL (≈ 15.6 µM) against Klebsiella pneumoniae, 0.38 µg/mL (≈ 0.991 µM) against Escherichia coli [1] and 0.03 µg/mL (≈ 0.0782 µM) against Escherichia coli [2]. In assay [3], the Activity came to 0.06 µmol.
Take `C[C@@H](O)[C@H]1C(=O)N2C(C(=O)O)=C(SCCNC=N)C[C@H]12` [IMIPENEM ANHYDROUS]: the MIC in the assay with Klebsiella pneumoniae came to 12 µg/mL (≈ 40.1 µM); in the assay with Escherichia coli [1], 1.5 µg/mL (≈ 5.01 µM). In assay [3], this compound had an Activity of 0.2 µmol.
Turning to `CC(C)(O/N=C(\C(=O)N[C@@H]1C(=O)N2C(C(=O)[O-])=C(C[n+]3ccccc3)CS[C@H]12)c1csc(N)n1)C(=O)O` [CEFTAZIDIME], the MIC in the assay with Klebsiella pneumoniae is above 256 µg/mL; in the assay on Escherichia coli [1] it was 4 µg/mL (≈ 7.32 µM); with Escherichia coli [2] it was 0.06 µg/mL (≈ 0.11 µM).
`C[C@H]1[C@H](NC(=O)/C(=N\OC(C)(C)C(=O)O)c2csc(N)n2)C(=O)N1S(=O)(=O)O` [AZTREONAM]: the MIC with Klebsiella pneumoniae was above 256 µg/mL; with Escherichia coli [1], 16 µg/mL (≈ 36.7 µM).
As for `C[C@@H](O)[C@H]1C(=O)N2C(C(=O)O)=C(S[C@@H]3CN[C@H](C(=O)Nc4cccc(C(=O)O)c4)C3)[C@H](C)[C@H]12` [ERTAPENEM], the values for the MIC in the assay on Klebsiella pneumoniae, in the assay on Escherichia coli [1] and in the assay on Escherichia coli [2] were 12 µg/mL (≈ 25.2 µM), 0.38 µg/mL (≈ 0.799 µM) and 0.03 µg/mL (≈ 0.0631 µM), respectively. The Activity in assay [3] stood at 0.05 µmol.
Regarding `CCN1CCN(C(=O)N[C@@H](C(=O)N[C@@H]2C(=O)N3[C@@H]2SC(C)(C)[C@@H]3C(=O)O)c2ccccc2)C(=O)C1=O` [PIPERACILLIN], the minimal inhibitory concentration (MIC) with Klebsiella pneumoniae was above 256 µg/mL; in the assay with Escherichia coli [1] it was 128 µg/mL (≈ 247 µM); in the assay on Escherichia coli [2] it was 1 µg/mL (≈ 1.93 µM).
Take `CC(=O)OCC1=C(C(=O)O)N2C(=O)[C@@H](NC(=O)Cc3cccs3)[C@H]2SC1` [CEPHALOTHIN]: the MIC in the assay on Klebsiella pneumoniae is above 256 µg/mL; in the assay on Escherichia coli [1], above 256 µg/mL; with Escherichia coli [2], 1 µg/mL (≈ 2.52 µM).
As to COLISTIN, the results for the MIC in the assay on Klebsiella pneumoniae, in the assay on Escherichia coli [1] and with Escherichia coli [2] were 128 µg/mL, 0.38 µg/mL and 0.38 µg/mL, respectively.
